In patent US10526309B2, “Pan-TAM inhibitors and Mer/Axl dual inhibitors” (The University of North Carolina at Chapel Hill, priority 2015, dated 2020):
Read-outs that look alike come from different tables or passages of the source.

Assays:
FLT3 = biological target: T1, FLT3 (Homo sapiens, UniProt P36888); assay: FLT3 kinase inhibition IC50; format: biochemical; details: Example 6
T1 sequence (P36888 27-993): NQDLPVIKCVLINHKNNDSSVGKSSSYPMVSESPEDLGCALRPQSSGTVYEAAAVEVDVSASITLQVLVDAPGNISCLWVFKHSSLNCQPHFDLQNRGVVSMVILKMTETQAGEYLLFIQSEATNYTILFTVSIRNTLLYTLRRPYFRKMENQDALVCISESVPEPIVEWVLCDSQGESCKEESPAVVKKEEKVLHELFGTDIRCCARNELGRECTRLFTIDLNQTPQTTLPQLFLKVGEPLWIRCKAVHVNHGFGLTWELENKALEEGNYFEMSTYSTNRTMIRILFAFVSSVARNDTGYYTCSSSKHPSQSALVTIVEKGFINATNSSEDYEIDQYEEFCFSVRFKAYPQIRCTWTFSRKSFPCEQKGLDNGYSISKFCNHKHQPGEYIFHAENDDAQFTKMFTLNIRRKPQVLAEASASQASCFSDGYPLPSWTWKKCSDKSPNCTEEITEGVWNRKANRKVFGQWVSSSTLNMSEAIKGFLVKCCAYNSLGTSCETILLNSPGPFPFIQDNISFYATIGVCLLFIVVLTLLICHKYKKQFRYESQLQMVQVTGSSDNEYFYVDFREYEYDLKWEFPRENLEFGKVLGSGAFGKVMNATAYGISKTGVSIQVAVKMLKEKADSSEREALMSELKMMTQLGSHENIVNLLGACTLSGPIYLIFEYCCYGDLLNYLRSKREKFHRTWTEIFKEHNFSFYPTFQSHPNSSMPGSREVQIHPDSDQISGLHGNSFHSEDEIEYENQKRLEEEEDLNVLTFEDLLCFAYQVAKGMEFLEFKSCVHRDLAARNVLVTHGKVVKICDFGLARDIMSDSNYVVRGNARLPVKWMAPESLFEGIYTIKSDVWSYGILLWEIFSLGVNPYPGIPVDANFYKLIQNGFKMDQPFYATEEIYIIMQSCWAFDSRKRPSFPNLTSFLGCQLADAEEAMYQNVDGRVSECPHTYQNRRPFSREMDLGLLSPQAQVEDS

Mer = biological target: T2, Mer (Homo sapiens, UniProt Q12866); assay: Mer kinase inhibition IC50; format: biochemical
T2 sequence (Q12866 21-999): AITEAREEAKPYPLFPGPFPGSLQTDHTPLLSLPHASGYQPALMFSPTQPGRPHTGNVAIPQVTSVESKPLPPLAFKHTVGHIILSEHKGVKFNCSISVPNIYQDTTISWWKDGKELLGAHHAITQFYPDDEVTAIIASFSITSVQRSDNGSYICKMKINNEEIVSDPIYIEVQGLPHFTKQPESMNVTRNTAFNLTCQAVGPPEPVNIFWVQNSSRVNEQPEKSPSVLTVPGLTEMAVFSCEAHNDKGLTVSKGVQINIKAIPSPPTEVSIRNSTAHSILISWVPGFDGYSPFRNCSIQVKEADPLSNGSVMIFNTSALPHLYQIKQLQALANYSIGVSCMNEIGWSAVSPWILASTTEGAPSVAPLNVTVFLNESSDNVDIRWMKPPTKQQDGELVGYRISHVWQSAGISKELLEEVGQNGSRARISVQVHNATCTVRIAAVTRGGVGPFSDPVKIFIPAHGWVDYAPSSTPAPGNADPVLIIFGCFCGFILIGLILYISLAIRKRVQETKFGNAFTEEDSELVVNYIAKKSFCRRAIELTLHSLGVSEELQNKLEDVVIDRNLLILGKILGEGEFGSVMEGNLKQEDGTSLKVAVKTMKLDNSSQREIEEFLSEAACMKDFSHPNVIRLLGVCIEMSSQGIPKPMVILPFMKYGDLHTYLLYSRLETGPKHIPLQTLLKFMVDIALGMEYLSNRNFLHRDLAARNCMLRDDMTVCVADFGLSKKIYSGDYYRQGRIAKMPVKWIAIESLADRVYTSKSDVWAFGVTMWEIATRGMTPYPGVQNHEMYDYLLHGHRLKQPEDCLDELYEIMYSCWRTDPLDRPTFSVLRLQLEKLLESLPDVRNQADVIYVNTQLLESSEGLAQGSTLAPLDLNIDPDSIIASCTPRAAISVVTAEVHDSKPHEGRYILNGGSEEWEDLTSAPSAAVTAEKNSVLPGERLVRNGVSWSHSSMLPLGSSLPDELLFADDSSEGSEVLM

MDA-MB-231 cells = assay: Invasion of MDA-MB-231 multicellular tumor spheroids in 3D collagen matrix; format: cell-based; details: MDA-MB-231 spheroids, 24 hours in collagen culture; in comparison to UNC1653, UNC2025, UNC2250
Description: The invasion of triple negative highly aggressive breast adenocarcinoma cells (MDA-MB-231) cultured as multicellular tumor spheroids (MTSs) in a 3D collagen matrix was examined.

Tyro3 = biological target: T3, Tyro3 (Homo sapiens, UniProt Q06418); assay: Tyro3 kinase inhibition IC50; format: biochemical; details: read-out: Tyro3 IC50
T3 sequence (Q06418 41-890): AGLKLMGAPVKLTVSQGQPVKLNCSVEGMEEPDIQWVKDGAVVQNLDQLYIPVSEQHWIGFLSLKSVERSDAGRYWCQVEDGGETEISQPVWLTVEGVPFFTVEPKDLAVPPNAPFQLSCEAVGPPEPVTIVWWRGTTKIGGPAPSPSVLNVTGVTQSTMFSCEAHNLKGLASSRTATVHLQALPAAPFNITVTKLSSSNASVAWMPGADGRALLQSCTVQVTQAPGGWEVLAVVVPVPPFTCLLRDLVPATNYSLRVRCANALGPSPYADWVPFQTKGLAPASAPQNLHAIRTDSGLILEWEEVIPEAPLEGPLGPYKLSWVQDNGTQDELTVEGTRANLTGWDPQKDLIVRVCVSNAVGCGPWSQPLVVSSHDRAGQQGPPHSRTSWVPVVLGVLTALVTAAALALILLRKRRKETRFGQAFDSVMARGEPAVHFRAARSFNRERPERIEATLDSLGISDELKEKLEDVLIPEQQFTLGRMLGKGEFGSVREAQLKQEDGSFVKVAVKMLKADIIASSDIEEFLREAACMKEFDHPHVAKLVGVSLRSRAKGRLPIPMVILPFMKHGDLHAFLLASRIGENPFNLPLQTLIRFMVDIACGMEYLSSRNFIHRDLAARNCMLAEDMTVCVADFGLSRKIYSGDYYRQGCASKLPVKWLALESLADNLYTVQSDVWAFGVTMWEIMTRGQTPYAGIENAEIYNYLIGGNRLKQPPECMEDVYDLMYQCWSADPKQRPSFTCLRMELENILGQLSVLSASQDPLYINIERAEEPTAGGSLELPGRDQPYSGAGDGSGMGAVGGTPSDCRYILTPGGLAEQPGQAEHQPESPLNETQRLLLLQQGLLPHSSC

IC50 (FLT3): 0.76 nM
IC50 (Mer; Example 6, read-out: MerTK IC50): 0.98 nM
IC50 (Mer; Table 1, read-out: Mer IC50): < 10 nM
IC50 (Tyro3; Example 6): 0.56 nM
IC50 (Tyro3; Table 1): < 10 nM
SMILES: O[C@H]1CC[C@H](Nc2nc(Nc3ccccc3)ncc2-c2ccc(CN3CCCC3)cn2)CC1 [UNC4198A]
levels of invasion (MDA-MB-231 cells): decreased levels of invasion
